Data on 18 compounds can be found in DBAASP.

What all share (experiment): ≥ marks a high value that may be exact or a test limit, other limits are often not marked, values filed in µg/mL are converted to µM
For experiment [1], the system named is Escherichia coli ATCC 25922.
In experiment [2] the test system is Staphylococcus aureus ATCC 25923.
Experiment [3] deals with Staphylococcus aureus ATCC 29213.
The subject of experiment [4] is Pseudomonas aeruginosa ATCC 27853.
The next experiment relates to Escherichia coli.

Each structure is given as a SMILES string. In brackets after ≈: the same amount, converted by molar mass. Where only a bound is given, the exact number is not on record here.

In turn, `CC[C@H](C)[C@H](NC(=O)CNC(=O)[C@H](CCSC)NC(=O)[C@H](CCCCN)NC(=O)[C@H](C)NC(=O)[C@H](CC(C)C)NC(=O)[C@H](CCCCN)NC(=O)[C@H](CCC(=O)O)NC(=O)[C@H](CC(C)C)NC(=O)CNC(=O)[C@H](CCCCN)NC(=O)[C@H](CC(C)C)NC(=O)[C@@H](NC(=O)[C@H](CO)NC(=O)[C@H](CC(C)C)NC(=O)[C@H](C)N)[C@@H](C)CC)C(=O)N[C@@H](C)C(=O)N[C@@H](CC(C)C)C(=O)N[C@H](C(=O)N[C@@H](CC(N)=O)C(=O)N[C@H]1CSSC[C@@H](C(=O)O)NC(=O)[C@H](CCCCN)NC(=O)[C@H](CCCCN)NC(=O)[C@H]([C@@H](C)O)NC(=O)[C@H](C)NC(=O)[C@H](CCCCN)NC1=O)[C@@H](C)O` [ALSILKGLEKLAKMGIALTNCKATKKC] returned an MIC in experiment [1] of 28 µM (≈ 79.7 µg/mL).
On the same count and under the same terms, in the case of `CC(C)[C@H](NC(=O)[C@@H]1CCCN1C(=O)[C@@H](N)Cc1ccccc1)C(=O)N[C@H](C(=O)N[C@@H](Cc1c[nH]c2ccccc12)C(=O)N[C@@H](CCCN=C(N)N)C(=O)N[C@@H](Cc1c[nH]c2ccccc12)C(=O)N[C@@H](Cc1c[nH]c2ccccc12)C(=O)N[C@@H](CCCN=C(N)N)C(=O)N[C@@H](Cc1c[nH]c2ccccc12)C(=O)N[C@@H](Cc1c[nH]c2ccccc12)C(=O)N[C@@H](CCCN=C(N)N)C(=O)NCC(N)=O)[C@@H](C)O` [FPVTWRWWRWWRG] it was 11.3 µM (≈ 21.7 µg/mL).
As to `CC[C@H](C)[C@H](NC(=O)CNC(=O)[C@H](CCCCN)NC(=O)[C@@H](NC(=O)[C@H](CC(C)C)NC(=O)[C@H](CO)NC(=O)CNC(=O)[C@H](CC(C)C)NC(=O)CNC(=O)[C@H](C)NC(=O)[C@H](CCCCN)NC(=O)[C@H](Cc1ccccc1)NC(=O)[C@@H](NC(=O)[C@H](CCC(=O)O)NC(=O)[C@H](CCCCN)NC(=O)[C@H](CC(C)C)NC(=O)CN)[C@@H](C)CC)C(C)C)C(=O)N[C@@H](C)C(=O)N[C@@H](C)C(=O)N[C@@H](Cc1cnc[nH]1)C(=O)N[C@H](C(=O)N[C@@H](C)C(=O)N[C@@H](CC(N)=O)C(N)=O)C(C)C` [GLKEIFKAGLGSLVKGIAAHVAN], the MIC in experiment [1] is 25 µM (≈ 57.3 µg/mL); in experiment [2], 200 µM (≈ 459 µg/mL).
`CC[C@H](C)[C@H](NC(=O)[C@H](CCCN=C(N)N)NC(=O)[C@H](CCCCN)NC(=O)[C@H](CC(C)C)NC(=O)[C@H](CC(C)C)NC(=O)CN)C(=O)N[C@@H](CCCCN)C(=O)N[C@@H](CC(C)C)C(=O)N[C@@H](CC(C)C)C(=O)N[C@@H](CC(C)C)C(N)=O` [GLLKRIKLLL]: the MIC came to 11.1 µM (≈ 13 µg/mL) in experiment [1] and 6 µM (≈ 6.99 µg/mL) in experiment [2].
In the same order, the values of `CC[C@H](C)[C@H](NC(=O)[C@H](CCCN=C(N)N)NC(=O)[C@H](CCCCN)NC(=O)[C@H](CC(C)C)NC(=O)[C@H](CC(C)C)NC(=O)CN)C(=O)N[C@@H](CCCCN)C(=O)N[C@@H](CC(N)=O)C(=O)N[C@@H](CC(C)C)C(=O)N[C@@H](CC(C)C)C(N)=O` [GLLKRIKNLL] are 18.8 µM (≈ 22 µg/mL) and 10.3 µM (≈ 12 µg/mL).
In the same order, the values of `CC[C@H](C)[C@H](NC(=O)[C@H](CCCN=C(N)N)NC(=O)[C@H](CCCCN)NC(=O)[C@H](CC(C)C)NC(=O)[C@H](CC(C)C)NC(=O)CN)C(N)=O` [GLLKRI] are above 54.4 µM and above 54.4 µM.
On the same counts, the results for `CC[C@H](C)[C@H](NC(=O)[C@@H](NC(=O)[C@H](CCCCN)NC(=O)[C@H](CC(C)C)NC(=O)[C@H](CC(C)C)NC(=O)CN)C(C)C)C(=O)N[C@@H](CCCCN)C(=O)N[C@H](C(=O)N[C@@H](CC(C)C)C(=O)N[C@@H](CC(C)C)C(N)=O)[C@@H](C)O` [GLLKVIKTLL] are 2.73 µM (≈ 3 µg/mL) and 2.73 µM (≈ 3 µg/mL).
`CC[C@H](C)[C@H](NC(=O)[C@H](C)NC(=O)CNC(=O)[C@H](C)NC(=O)[C@H](CCCCN)NC(=O)[C@H](CO)NC(=O)[C@H](C)NC(=O)[C@H](CCSC)NC(=O)CN)C(=O)N[C@@H](C)C(=O)NCC(=O)N[C@@H](CCCCN)C(=O)N[C@H](C(=O)N[C@@H](C)C(=O)N[C@@H](CCCCN)C(=O)N[C@H](C(=O)N[C@@H](C)C(=O)N[C@@H](Cc1c[nH]c2ccccc12)C(=O)N[C@@H](CCCCN)C(=O)N[C@@H](C)C(=O)N[C@@H](CC(C)C)C(=O)NCC(=O)NCC(=O)N[C@@H](C)C(N)=O)C(C)C)[C@@H](C)CC` [GMASKAGAIAGKIAKVAWKALGGA]: the MIC in experiment [1] is 12.5 µM (≈ 27.9 µg/mL).
Take `CC[C@H](C)[C@H](NC(=O)[C@H](CC(=O)O)NC(=O)[C@H](CC(C)C)NC(=O)[C@@H](NC(=O)CN)C(C)C)C(=O)N[C@@H](CC(C)C)C(=O)N[C@@H](CCCCN)C(=O)NCC(=O)N[C@@H](C)C(=O)N[C@@H](C)C(=O)N[C@@H](CCCCN)C(=O)N[C@@H](CC(=O)O)C(=O)N[C@@H](CC(C)C)C(=O)N[C@@H](C)C(=O)NCC(=O)N[C@@H](Cc1cnc[nH]1)C(=O)O` [GVLDILKGAAKDLAGH]: the values for the MIC in experiment [3] and in experiment [1] were 40.5 µM (≈ 63.9 µg/mL) and 10.1 µM (≈ 15.9 µg/mL), respectively.
The compound `CC(C)C[C@H](NC(=O)[C@H](C)NC(=O)[C@H](CCCCN)NC(=O)[C@H](C)NC(=O)[C@H](C)NC(=O)CNC(=O)[C@H](CCCCN)NC(=O)[C@H](CC(C)C)NC(=O)[C@H](CC(C)C)NC(=O)[C@H](CC(=O)O)NC(=O)[C@H](CCCCN)NC(=O)[C@H](Cc1c[nH]c2ccccc12)NC(=O)CN)C(=O)N[C@H](C(=O)N[C@@H](CCCCN)C(=O)N[C@H](C(=O)N[C@H](C(=O)N[C@@H](Cc1ccccc1)C(N)=O)C(C)C)[C@@H](C)O)C(C)C` [GWKDLLKGAAKALVKTVF] showed an MIC in experiment [1] of 3 µM (≈ 5.83 µg/mL).
As for `CC(=O)N[C@@H](CCCCN)C(=O)N[C@@H](CC(C)C)C(=O)N[C@@H](CC(C)C)C(=O)N[C@@H](CCCCN)C(=O)N1CCC[C@H]1C(=O)N[C@@H](CC(C)C)C(=O)N[C@@H](CCCCN)C(=O)N[C@@H](CCCCN)C(=O)N[C@@H](CC(C)C)C(=O)N[C@@H](CC(C)C)C(=O)N[C@@H](CCCCN)C(=O)N[C@@H](CC(C)C)C(=O)N[C@@H](CC(C)C)C(=O)N[C@@H](CCCCN)C(N)=O` [KLLKPLKKLLKLLK], the MIC in experiment [3] is 28.3 µM (≈ 48.6 µg/mL); in experiment [1], 20 µM (≈ 34.3 µg/mL).
With `CC[C@H](C)[C@H](NC(=O)[C@@H]1CCCN1C(=O)[C@H](CCCCN)NC(=O)[C@H](CC(C)C)NC(=O)[C@H](C)NC(=O)[C@@H](NC(=O)[C@@H](NC(=O)[C@H](CC(C)C)NC(=O)[C@@H](NC(=O)[C@H](CCCCN)NC(=O)[C@H](CCCCN)NC(=O)[C@H](C)NC(=O)[C@H](C)NC(=O)[C@H](CO)NC(=O)[C@@H](NC(=O)[C@H](CC(C)C)NC(=O)[C@H](CCCCN)NC(=O)[C@H](CCCCN)NC(=O)[C@H](CC(C)C)NC(=O)[C@H](Cc1ccccc1)NC(=O)[C@H](CCCCN)NC(=O)[C@H](CCCCN)NC(=O)[C@H](Cc1c[nH]c2ccccc12)NC(=O)[C@@H](N)CCCCN)[C@@H](C)O)C(C)C)[C@@H](C)O)[C@@H](C)O)C(=O)N[C@@H](CO)C(=O)N[C@@H](CO)C(=O)O` [KWKKFLKKLTSAAKKVLTTALKPISS], the MIC in experiment [4] was 2 µM (≈ 5.83 µg/mL).
In the experiment on Escherichia coli, `CC(C)C[C@H](NC(=O)[C@H](CCCN=C(N)N)NC(=O)CNC(=O)CNC(=O)[C@@H](N)CCCN=C(N)N)C(=O)N[C@H]1CSSC[C@@H](C(=O)N[C@@H](CCC(=O)O)C(=O)O)NC(=O)[C@H](C(C)C)NC(=O)[C@@H]2CSSC[C@H](NC(=O)[C@H](Cc3ccc(O)cc3)NC1=O)C(=O)N[C@@H](CCCN=C(N)N)C(=O)N[C@@H](CCCN=C(N)N)C(=O)N[C@@H](CCCN=C(N)N)C(=O)N[C@@H](Cc1ccccc1)C(=O)N2` [RGGRLCYCRRRFCVCE] displayed an MIC of 0.303 µM (≈ 0.599 µg/mL).
In experiment [1], `CC(C)C[C@H](NC(=O)[C@H](Cc1ccccc1)NC(=O)[C@@H]1CCCN1C(=O)[C@H](C)NC(=O)[C@H](C)NC(=O)[C@H](C)NC(=O)[C@@H]1CCCN1C(=O)[C@H](Cc1ccccc1)NC(=O)[C@H](CCCN=C(N)N)NC(=O)[C@H](CCCN=C(N)N)NC(=O)[C@@H](N)C(C)C)C(=O)N[C@@H](CCCN=C(N)N)C(=O)N[C@@H](CCCN=C(N)N)C(N)=O` [VRRFPAAAPFLRR] yielded an MIC above 128 µM.
Still for that read-out and setting: in the case of `CC(C)C[C@H](NC(=O)[C@H](Cc1ccccc1)NC(=O)[C@@H]1CCCN1C(=O)[C@H](Cc1ccc(O)cc1)NC(=O)[C@H](Cc1c[nH]c2ccccc12)NC(=O)[C@H](Cc1ccc(O)cc1)NC(=O)[C@@H]1CCCN1C(=O)[C@H](Cc1ccccc1)NC(=O)[C@H](CCCN=C(N)N)NC(=O)[C@H](CCCN=C(N)N)NC(=O)[C@@H](N)C(C)C)C(=O)N[C@@H](CCCN=C(N)N)C(=O)N[C@@H](CCCN=C(N)N)C(N)=O` [VRRFPYWYPFLRR] it was 16 µM (≈ 29.7 µg/mL).
On to `C[C@H](NC(=O)[C@H](Cc1c[nH]c2ccccc12)NC(=O)[C@H](CCCN=C(N)N)NC(=O)[C@H](CCCN=C(N)N)NC(=O)[C@H](C)NC(=O)[C@H](CCCCN)NC(=O)[C@@H](N)Cc1ccc(O)cc1)C(=O)N[C@@H](Cc1c[nH]c2ccccc12)C(=O)N[C@@H](CCCN=C(N)N)C(=O)N[C@@H](Cc1c[nH]c2ccccc12)C(=O)N[C@@H](CCCCN)C(=O)O` [YKARRWAWRWK], for which the MIC in experiment [1] was 12.4 µM (≈ 20 µg/mL); in experiment [2], 12.4 µM (≈ 20 µg/mL); in experiment [4], 31.1 µM (≈ 50 µg/mL).
As for `C[C@H](NC(=O)[C@H](Cc1c[nH]c2ccccc12)NC(=O)[C@H](CCCN=C(N)N)NC(=O)[C@H](Cc1c[nH]c2ccccc12)NC(=O)[C@H](C)NC(=O)[C@H](CCCN=C(N)N)NC(=O)[C@@H](N)Cc1ccc(O)cc1)C(=O)N[C@@H](Cc1c[nH]c2ccccc12)C(=O)N[C@@H](CCCN=C(N)N)C(=O)N[C@@H](Cc1c[nH]c2ccccc12)C(=O)N[C@@H](CCCN=C(N)N)C(N)=O` [YRAWRWAWRWR], the MIC in experiment [1] was 5.91 µM (≈ 9.99 µg/mL); in experiment [2], 1.48 µM (≈ 2.5 µg/mL); in experiment [4], 11.8 µM (≈ 20 µg/mL).
In the same order, the values of `NC(=O)[C@H](Cc1c[nH]c2ccccc12)NC(=O)[C@H](CCCN=C(N)N)NC(=O)[C@H](Cc1c[nH]c2ccccc12)NC(=O)[C@H](CCCN=C(N)N)NC(=O)[C@H](Cc1c[nH]c2ccccc12)NC(=O)[C@@H](N)Cc1ccc(O)cc1` [YWRWRW] are 19 µM (≈ 20 µg/mL), 9.5 µM (≈ 9.99 µg/mL) and 47.5 µM (≈ 50 µg/mL).

A word on the MIC: it is the lowest concentration found to suppress growth.
